Tested on: L. major lysate proteins
Assay: Multitargeted bead mixture chemoproteomics, single concentration competition, proteome-wide
Format: binding
Settings: for fold change: vehicle control = 1

NCCOCCOCC(=O)Nc1nc2ncc(CNc3ccc(C(=O)NC(CCC(=O)O)C(=O)O)cc3)nc2c(=O)[nH]1 (stereo not drawn) [compound 6]
fold change (protein LMJF.28.0710 HYPOTHETICAL PROTEIN, CONSERVED (SNARE associated Golgi protein, putative)): 1
fold change vs vehicle control (protein LMJF.28.0930 HY[…], CONSERVED): 1.01
fold change vs vehicle control (protein LMJF.28.0960 40S RIBOSOMAL PROTEIN S14): 1.09
fold change vs vehicle control (protein LMJF.28.1530 ATP DEPENDENT DEAD-BOX HELICASE, PUTATIVE): 0.91
fold change relative to vehicle control (protein LMJF.28.1730, PROTEASOME REGULATORY NON-ATP-ASE SUBUNIT 2, PUTATIVE): 1.1
fold change relative to vehicle control (protein LMJF.28.2310, EUKARYOTIC TRANSLATION INITIATION FACTOR, PUTATIVE): 1.1
fold change vs vehicle control (protein LMJF.28.2430 VACUOLAR ATP SYNTHASE SUBUNIT B, PUTATIVE): 0.97
fold change relative to vehicle control (protein LMJF.28.2770, HEAT-SHOCK PROTEIN HSP70, PUTATIVE): 1.35
fold change (protein LMJF.28.2910 GLUTAMATE DEHYDROGENASE, PUTATIVE): 0.9
fold change vs vehicle control (protein LMJF.29.0120 PROTEASOME REGULATORY NON-ATPASE SUBUNIT, PUTATIVE): 1
fold change (protein LMJF.29.0620 ATP-BINDING CASSETTE PROTEIN SUBFAMILY A, MEMBER 10, PUTATIVE): 0.81
fold change vs vehicle control (protein LMJF.29.0760 […] BI[…], PUTATIVE,HEAT SHOCK PROTEIN 90, PUTATIVE): 1.05
fold change relative to vehicle control (protein LMJF.29.0850, HIGH MOBILITY GROUP PROTEIN HOMOLOG TDP-1, PUTATIVE): 1.17
fold change vs vehicle control (protein LMJF.29.0940 HY[…], CONSERVED): 1.19
fold change vs vehicle control (protein LMJF.29.1160 TRYPAREDOXIN): 0.8
fold change vs vehicle control (protein LMJF.29.1240 HYPOTHETICAL PROTEIN, UNKNOWN FUNCTION): 0.95
fold change vs vehicle control (protein LMJF.29.1270 100 kDa heat shock protein (Hsp100)): 1.02
fold change vs vehicle control (protein LMJF.29.1310 CARNITINE/CHOLINE ACETYLTRANSFERASE, PUTATIVE): 1.07
fold change relative to vehicle control (protein LMJF.29.1760, PAR[…] PROTEIN 1D, PUTATIVE): 1.02
fold change vs vehicle control (protein LMJF.29.1780 DIPHTHAMIDE SYNTHESIS PROTEIN, PUTATIVE): 0.96
fold change (protein LMJF.29.2200 GTP-BINDING PROTEIN, PUTATIVE (dynamin-1-like protein)): 1.03
fold change (protein LMJF.29.2310 ENOYL-COA HYDRATASE/ISOMERASE-LIKE PROTEIN): 0.99
fold change vs vehicle control (protein LMJF.29.2360 ASPARTYL AMINOPEPTIDASE, PUTATIVE,METALLO-PEPTIDASE, CLAN MH, FAMILY M20): 0.95
fold change (protein LMJF.29.2860 40S RIBOSOMAL PROTEIN S19-LIKE PROTEIN): 1.12
fold change (protein LMJF.30.0580 HY[…], CONSERVED (AMP-binding enzyme, putative)): 1.03
fold change (protein LMJF.30.0850 SURFACE PROTEIN AMASTIN, PUTATIVE): 0.98
fold change vs vehicle control (protein LMJF.30.1250 PYRIDOXAL KINASE, PUTATIVE): 1.24
fold change vs vehicle control (protein LMJF.30.2580 RETICULON DOMAIN PROTEIN, 22 KDA POTENTIALLY AGGRAVATING PROTEIN (PAPLE22)): 0.95
fold change relative to vehicle control (protein LMJF.30.3090, HY[…], CONSERVED (RNA-binding protein 42, putative)): 1.16
fold change vs vehicle control (protein LMJF.30.3240 GLUTAMYL-TRNA SYNTHETASE, PUTATIVE): 1.11
fold change (protein LMJF.30.3380 PAS-DOMAIN CONTAINING PHOSPHOGLYCERATE KINASE, PUTATIVE): 0.84
fold change (protein LMJF.30.3430 HY[…], CONSERVED (protein mkt1, putative)): 1.04
fold change (protein LMJF.30.3520 S-ADENOSYLMETHIONINE SYNTHETASE): 0.86
fold change (protein LMJF.30.3570 ZINC FINGER-DOMAIN PROTEIN, PUTATIVE): 0.86
fold change relative to vehicle control (protein LMJF.31.0080, HYPOTHETICAL PROTEIN, CONSERVED): 1.2
fold change vs vehicle control (protein LMJF.31.0340 AMINO ACID PERMEASE, PUTATIVE): 1.17
fold change (protein LMJF.31.1130 N-ACYL-L-AMINO ACID AMIDOHYDROLASE, PUTATIVE): 0.98
fold change vs vehicle control (protein LMJF.31.1640 THIOLASE PROTEIN-LIKE PROTEIN): 1.09
fold change relative to vehicle control (protein LMJF.31.2150, PROSTAGLANDIN F2-ALPHA SYNTHASE/D-ARABINOSE DEHYDROGENASE): 1.02
fold change vs vehicle control (protein LMJF.31.2250 3,2-TRANS-ENOYL-COA ISOMERASE, MIT[…], PUTATIVE): 0.97
fold change vs vehicle control (protein LMJF.32.0750 RNA BINDING PROTEIN, PUTATIVE): 1.19
fold change vs vehicle control (protein LMJF.32.1060 DYNEIN, PUTATIVE): 0.96
fold change relative to vehicle control (protein LMJF.32.1820, IRON […], PUTATIVE): 1.08
fold change relative to vehicle control (protein LMJF.32.2320, C-14 STEROL REDUCTASE, PUTATIVE): 1.02
fold change relative to vehicle control (protein LMJF.32.2950, NUCLEOSIDE DIPHOSPHATE KINASE B): 0.94
fold change vs vehicle control (protein LMJF.32.3870 MYOSIN XXI): 0.97
fold change relative to vehicle control (protein LMJF.33.0240, THIOL-DEPENDENT REDUCTASE 1): 1.18
fold change (protein LMJF.33.0280 HYPOTHETICAL PROTEIN, CONSERVED): 0.92
fold change relative to vehicle control (protein LMJF.33.0890, HY[…], CONSERVED): 1.01
fold change vs vehicle control (protein LMJF.33.1070 HY[…], UNKNOWN FUNCTION): 1.07
fold change vs vehicle control (protein LMJF.33.1330 CYSTEINE CONJUGATE BETA-LYASE, AMINOTRANSFERASE- LIKE PROTEIN): 1.04
fold change (protein LMJF.33.1590 HYPOTHETICAL PROTEIN, CONSERVED (3-ketoacyl-CoA reductase, putative)): 0.97
fold change relative to vehicle control (protein LMJF.33.1860, ATP-BINDING CASSETTE PROTEIN SUBFAMILY D, MEMBER 3, PUTATIVE): 1.15
fold change relative to vehicle control (protein LMJF.33.2340, SUCCINYL-COA:3-KETOACID-COENZYME A TRANSFERASE, MIT[…], PUTATIVE): 1.18
fold change relative to vehicle control (protein LMJF.33.2440, HY[…], CONSERVED): 1.19
fold change relative to vehicle control (protein LMJF.33.2540, CARBOXYPEPTIDASE, PUTATIVE,METALLO-PEPTIDASE, CLAN MA(E), FAMILY M32): 1.79
fold change (protein LMJF.33.3150 40S RIBOSOMAL PROTEIN S13, PUTATIVE): 0.88
fold change relative to vehicle control (protein LMJF.34.0140, MALATE DEHYDROGENASE): 1.47
fold change vs vehicle control (protein LMJF.34.0440 RIBOSOMAL PROTEIN S25): 1.1
fold change relative to vehicle control (protein LMJF.34.2580, HY[…], CONSERVED (ALBA-domain protein 3)): 1.11
fold change relative to vehicle control (protein LMJF.34.3250, PUTATIVE PYRUVATE/INDOLE-PYRUVATE CARBOXYLASE, PUTATIVE): 0.98
fold change (protein LMJF.34.4370 20S […] 7 SUBUNIT, (PUTATIVE)): 0.96
fold change vs vehicle control (protein LMJF.34.4620 HY[…], CONSERVED): 1.01
fold change (protein LMJF.35.0070 PROHIBITIN, PUTATIVE): 1.04
fold change vs vehicle control (protein LMJF.35.0360 ENOYL-COA HYDRATASE/ISOMERASE FAMILY PROTEIN, CONSERVED): 1.24
fold change (protein LMJF.35.0370 ATP-DEPENDENT DEAD-BOX RNA HELICASE, PUTATIVE): 1.08
